In patent US12006542B2, “Force-modulated hybridization for visualizing nucleic acid length and function” (University of Houston System, priority 2017, dated 2024):

Key:
[1] = system: segment of the DNA duplex specified by DpnII; assay: Dissociation force of drug-DNA binding, segment chosen by DpnII; conditions: for order of binding strength (dissociation force): DNA segment chosen by addition of DpnII, FIG. 5C red section
Excerpt: (§6) The dissociation force can be further used to quantitatively distinguish the binding strength of different drug molecules at each and every specific nucleotide sequence. […] This segment is specifically chosen because of the addition of enzyme DpnII.

[2] = system: DNA duplex, enzyme-binding segment for DpnII; assay: Force-modulated drug-DNA binding determination with DNA-cleaving enzyme DpnII (visual particle immobilization); conditions: DpnII present; after ~1 pN force
Excerpt: (§1) To determine the exact binding site of drugs on nucleic acids, a derived scheme contains a magnetically labeled DNA and its complementary strand, in the presence of the drug to be analyzed and a DNA-cleaving enzyme. The binding site of the drug can be precisely determined by force modulation following surface immobilization.
(§2) FIG. 1D can be utilized to illustrate a system 100 for measuring drug-DNA binding. A magnetically labeled DNA strand 102 is hybridized with its complementary strand 104, in the presence of a drug molecule 106 and a DNA-cleaving enzyme 107. If the drug binds with the DNA specifically at the location of the enzyme, the enzyme will not be able to cleave the duplex. Consequently, the magnetic particles will be able to be immobilized on the surface via the biotin 105 on complementary strand 104, showing yellowish color in image 108(a) and being assigned as “1”. […] Thus, the magnetic particles will not be able to bind with the surface because of the absence of a functional group (such as biotin 105 shown in FIG. 1D) to interact with the matching functional group on the surface, showing as clear and being assigned as “0” in image 108(b).
(§3) The derived scheme presented in FIG. 1D was used to precisely determine the binding sites of drug molecules. […]

[3] = system: DNA; assay: Laser transmission quantification of immobilized particles at different drug concentrations; assay type: binding; conditions: fitting of transmission profile vs drug concentration
Excerpt: The detection was achieved by using a photodetector (DET100A, Thorlabs) coupled with a voltmeter. […] Fitting of the profile yielded a binding constant of 9±2×10^4 M^−1, consistent with the results using a sensitive atomic magnetometer.

[4] = system: DNA duplex, enzyme-binding segment for EcoRI; assay: Force-modulated drug-DNA binding determination with DNA-cleaving enzyme EcoRI (visual particle immobilization); conditions: EcoRI present; after ~1 pN force
Excerpt: as §1, §2, §3

[5] = system: DNA duplex, EcoRI binding site; assay: Multiplexed sample wells, ultrasound force through a piezo plate, EcoRI; conditions: 100 μM drug, lane 4
Protocol: (§4) A shown in FIG. 7A, a new system was designed consisting of a puncher, an incubator, and a displayer. After incubating the sample, the puncher will be used to break the bottom of the incubator so the sample will be transferred to the corresponding wells on the displayer. The bottom of the displayer was functionalized, for example with streptavidin, so that magnetic particles will be able to be immobilized through a labeled DNA duplex, for example with biotin. A mechanical force is then applied on the displayer followed by final inspection and measurement.
(§5) The samples within each lane were under identical conditions. 1: DNA duplex with 100 μM daunorubicin and DpnII; 2: DNA duplex with 100 μM netropsin and DpnII; 3: DNA duplex; 4: DNA duplex incubated with 100 μM daunomycin and EcoRI; 5: DNA duplex with 100 μM netropsin and ECoRI. After applying ultrasound through a piezo plate, only the particles in lanes 2 and […] were removed, indicating weak binding between netropsin and CTAG (lane 2), and between daunomycin and the EcoRI binding site (lane 4).

[6] = relative to doxorubicin; cited from earlier work
[7] = system: DNA duplex, CTAG (DpnII); assay: Multiplexed sample wells, ultrasound force through a piezo plate, DpnII; assay type: binding; conditions: 100 μM drug, lane 2
Protocol: as §4, §5

[8] = system: segment of the DNA duplex specified by EcoRI; assay: Dissociation force of drug-DNA binding, segment specified by EcoRI; conditions: FIG. 5C blue section
Excerpt: as §6

Compound | order of binding strength (dissociation force) [1] | blocking of DpnII binding site on DNA duplex (particle immobilization) [2] | binding constant [3] | blocking of EcoRI on DNA duplex (particle immobilization) [4] | binding with the EcoRI binding site after ultrasound [5] | sequence selectivity of DNA binding ([1]; comparison of DpnII and EcoRI segments) | toxicity in chemotherapy [6] | binding with CTAG after ultrasound [7] | rank of binding strength (dissociation force) [8]
COc1cccc2c1C(=O)c1c(O)c3c(c(O)c1C2=O)C[C@@](O)(C(C)=O)C[C@@H]3O[C@H]1C[C@H](N)[C@H](O)[C@H](C)O1 [daunomycin] | daunomycin, doxorubicin > epirubicin >> daunomycin >> netropsin | blocked the binding site of DpnII | 9±2×10^4 M^−1 | could not | weak binding | – | – | – | –
COc1cccc2c1C(=O)c1c(O)c3c(c(O)c1C2=O)C[C@@](O)(C(=O)CO)C[C@@H]3O[C@H]1C[C@H](N)[C@H](O)[C@H](C)O1 [doxorubicin] | daunomycin, doxorubicin > epirubicin >> daunomycin >> netropsin | – | – | – | – | – | – | – | –
COc1cccc2c1C(=O)c1c(O)c3c(c(O)c1C2=O)C[C@@](O)(C(=O)CO)C[C@@H]3O[C@H]1C[C@H](N)[C@@H](O)[C@H](C)O1 [epirubicin] | daunomycin, doxorubicin > epirubicin >> daunomycin >> netropsin | – | – | – | – | more sequence-selective than doxorubicin | less toxic | – | –
Cn1cc(NC(=O)c2cc(NC(=O)CN=C(N)N)cn2C)cc1C(=O)NCCC(=N)N [netropsin] | daunomycin, doxorubicin > epirubicin >> daunomycin >> netropsin | does not interfere with the binding of DpnII | – | able to block EcoRI | – | – | – | weak binding | second strongest
